Laboratory results: publication PMC11098091 (Nature chemical biology, 2022)

How the values were obtained:
human μOR (Gz) = human μOR (Gz) (Homo sapiens, UniProt P35372); format: cell-based; details: read-out: potency at Gz
human μOR (GoB) = human μOR (GoB) (Homo sapiens, UniProt P35372); format: cell-based; details: read-out: potency at GoB
human μOR = human μOR (Homo sapiens, UniProt P35372); format: cell-based
[1] = molecular target: human μOR (β-arrestin-1, β-arrestin-2) (Homo sapiens, UniProt P35372); format: cell-based
μOR Y326^7.43F mutant [2] = molecular target: T1, μOR Y326^7.43F mutant (Homo sapiens, UniProt P35372, Y328F); format: cell-based
μOR Y326^7.43F mutant [3] = molecular target: T1, μOR Y326^7.43F mutant; format: cell-based; remark: listed apart in the source
μOR Q124^2.60A mutant [4] = molecular target: T2, μOR Q124^2.60A mutant (Homo sapiens, UniProt P35372, Q126A); format: cell-based
μOR Q124^2.60A mutant [5] = molecular target: T2, μOR Q124^2.60A mutant; format: cell-based; remark: listed apart in the source
wild type human μOR [6] = molecular target: T3, wild type human μOR (Homo sapiens, UniProt P35372); format: cell-based
wild type human μOR [7] = molecular target: T3, wild type human μOR; format: cell-based; remark: listed apart in the source
mice = details: mouse, in vivo; cited from earlier work

Sequence of human μOR (P35372 whole entry): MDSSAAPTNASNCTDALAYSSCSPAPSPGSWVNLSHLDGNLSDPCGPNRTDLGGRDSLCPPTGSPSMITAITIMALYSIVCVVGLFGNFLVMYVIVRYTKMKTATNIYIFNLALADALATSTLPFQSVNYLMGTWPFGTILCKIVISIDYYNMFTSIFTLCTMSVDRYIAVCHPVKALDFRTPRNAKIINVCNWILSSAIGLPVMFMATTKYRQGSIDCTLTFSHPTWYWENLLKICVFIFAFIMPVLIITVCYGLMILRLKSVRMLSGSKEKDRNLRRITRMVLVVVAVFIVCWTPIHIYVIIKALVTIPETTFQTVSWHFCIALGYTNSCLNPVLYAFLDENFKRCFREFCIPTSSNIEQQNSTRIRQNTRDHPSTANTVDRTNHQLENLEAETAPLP
T3 sequence (P35372 whole entry): as above
T1 sequence (P35372 whole entry Y328F): as the sequence (P35372 whole entry) above, with Y328F counted along it
T2 sequence (P35372 whole entry Q126A): as the sequence (P35372 whole entry) above, with Q126A counted along it
Sequence of human μOR (β-arrestin-1, β-arrestin-2) (P35372 whole entry): as the sequence (P35372 whole entry) above
Sequence of human μOR (GoB) (P35372 whole entry): as above
Sequence of human μOR (Gz) (P35372 whole entry): as above

Compound: CC[C@@H]1CN2CC[C@]3(Nc4cccc(OC)c4C3=O)[C@@H]2C[C@@H]1/C(=C\OC)C(=O)OC [MP, Mitragynine pseudoindoxyl]
- EC50 (human μOR (Gz)): 0.9 nM
- EC50 (human μOR (GoB)): 3.2 nM
- efficacy at Gi/o/z subtypes compared to DAMGO (human μOR): partial agonist
- potency spread across G protein subtypes (human μOR): ~ 3 fold
- recruitment of β-arrestins [1]: no detectable recruitment
- reduction of maximal β-arrestin 2 recruitment by the Y326F mutation (μOR Y326^7.43F mutant [2]): eliminated detectable
- reduction of maximal Gi1 activation by the Y326F mutation (μOR Y326^7.43F mutant [3]): 68%
- reduction of maximal Gi response by the Q124A mutation (μOR Q124^2.60A mutant [4]): more than half
- arrestin recruitment at the Q124A mutant (μOR Q124^2.60A mutant [5]): completely abolishes
- potency in G protein dissociation assays (wild type human μOR [6]): as potent as DAMGO
- recruitment of β-arrestins (wild type human μOR [7]): very little detectable activity
- development of antinociceptive tolerance (mice): much more slowly
- potency relative to morphine (mice): approximately ten-fold more potent
- respiratory depression (mice): did not cause respiratory depression
